Assay results reported in the supplement of paper PMC10307832.

Legend:
Assay in all cases: relative viability (nuclei count vs DMSO), 5 days (fraction); higher = more cells survive
GSK-J4 + Vorinostat = compound: CCOC(=O)CCNc1cc(N2CCc3ccccc3CC2)nc(-c2ccccn2)n1 [GSK-J4] + O=C(CCCCCCC(=O)Nc1ccccc1)NO [Vorinostat] (partner 1 µM)
Outline: (§1)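 The day after seeding in 1536-well plates, lung cancer cell lines were treated by pin tool with a single drug, or with a fixed anchor-drug dose together with five library-drug doses (not always all listed) in √10 steps. After 5 days, a combined fix-and-stain solution (final 0.05% Triton X-100, 1% formaldehyde, 1 ug/ml Hoechst) was added. Nuclei counted on 4× images gave relative viability as treated counts over vehicle counts, reported as the median of duplicate plates.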

AZ3146 + Dasatinib = compound: CN1CCC(CC1)OC2=CC(=C(C=C2)NC3=NC=C4C(=N3)N(C(=O)N4C)C5CCCC5)OC [AZ3146] + Cc1nc(Nc2ncc(C(=O)Nc3c(C)cccc3Cl)s2)cc(N2CCN(CCO)CC2)n1 [Dasatinib] (partner 0.075 µM)
Outline: as §1

AZ3146 + Decitabine = compound: CN1CCC(CC1)OC2=CC(=C(C=C2)NC3=NC=C4C(=N3)N(C(=O)N4C)C5CCCC5)OC [AZ3146] + Nc1ncn([C@H]2C[C@H](O)[C@@H](CO)O2)c(=O)n1 [Decitabine] (partner 2 µM)
Outline: as §1

AZ3146 + Vorinostat = compound: CN1CCC(CC1)OC2=CC(=C(C=C2)NC3=NC=C4C(=N3)N(C(=O)N4C)C5CCCC5)OC [AZ3146] + O=C(CCCCCCC(=O)Nc1ccccc1)NO [Vorinostat] (partner 1 µM)
Outline: as §1

Cell Line	relative viability (GSK-J4 + Vorinostat; first compound 0.5 µM)	relative viability (GSK-J4 + Vorinostat; first compound 1.581 µM)	relative viability (GSK-J4 + Vorinostat; first compound 15.81 µM)	relative viability (GSK-J4 + Vorinostat; first compound 50 µM)	relative viability (AZ3146 + Dasatinib; first compound 0.08 µM)	relative viability (AZ3146 + Dasatinib; first compound 0.253 µM)	relative viability (AZ3146 + Dasatinib; first compound 0.8 µM)	relative viability (AZ3146 + Dasatinib; first compound 2.53 µM)	relative viability (AZ3146 + Dasatinib; first compound 8 µM)	relative viability (AZ3146 + Decitabine; first compound 0.08 µM)	relative viability (AZ3146 + Decitabine; first compound 0.253 µM)	relative viability (AZ3146 + Decitabine; first compound 0.8 µM)	relative viability (AZ3146 + Decitabine; first compound 2.53 µM)	relative viability (AZ3146 + Decitabine; first compound 8 µM)	relative viability (AZ3146 + Vorinostat; first compound 0.08 µM)	relative viability (AZ3146 + Vorinostat; first compound 0.253 µM)	relative viability (AZ3146 + Vorinostat; first compound 0.8 µM)	relative viability (AZ3146 + Vorinostat; first compound 2.53 µM)	relative viability (AZ3146 + Vorinostat; first compound 8 µM)	relative viability (GSK-J4 + Vorinostat; first compound 5 µM)
NCI-H522	0.931	0.725	0.651	0.862	0.721	0.73	0.863	0.815	1.02	0.732	0.589	0.683	0.616	0.714	0.66	0.695	0.945	0.903	0.835	–
NCI-H1993	1.15	0.708	0.601	0.409	0.537	0.563	0.677	0.643	0.475	0.699	0.54	0.561	0.588	0.594	0.724	1.03	1.06	1.05	0.559	0.804
NCI-H322M	0.877	0.964	0.84	0.928	0.236	0.248	0.24	0.251	0.285	0.604	0.671	0.727	0.698	0.721	0.798	0.839	0.916	0.904	0.849	1.11
NCI-H460	0.663	–	0.67	0.656	0.463	0.485	0.484	0.463	0.476	0.38	0.475	0.445	0.467	0.178	0.623	0.813	0.707	0.693	0.0632	0.623
NCI-H358	0.662	–	0.602	0.455	0.2	0.135	0.149	0.153	0.209	0.201	0.225	0.182	0.207	0.159	0.571	0.687	0.631	0.723	0.171	0.671
SW 900	0.607	0.414	0.408	0.483	0.479	0.456	0.503	0.666	0.337	0.389	–	0.442	0.451	0.558	0.465	–	0.393	0.48	0.446	0.79
NCI-H1395	1.11	0.813	0.594	0.62	0.415	0.381	0.327	0.42	0.398	0.642	0.746	–	0.864	0.849	0.66	0.504	–	0.84	0.615	0.625
LCLC-103H	0.77	0.671	0.675	0.546	0.532	0.354	0.472	0.551	0.422	0.675	0.732	0.742	0.741	0.729	0.51	0.726	0.78	0.844	0.711	0.624
SK-MES-1	0.986	0.968	1.04	0.524	0.42	0.311	0.387	0.316	0.258	0.364	0.397	0.359	0.477	0.344	1.04	1.17	1.14	1.19	0.701	1.04
PC-3 [JPC-3]	1.05	0.723	0.624	0.725	0.86	0.92	0.991	1.12	1.05	0.768	–	0.806	0.81	0.85	0.554	–	0.803	0.66	0.713	0.671
COR-L 105	0.899	–	0.843	0.526	0.394	0.261	0.238	0.288	0.191	0.647	0.55	0.632	0.622	0.549	0.819	0.887	0.902	0.879	0.487	0.833
EKVX	0.686	–	–	0.524	0.434	0.572	0.5	0.565	0.535	0.285	0.304	0.381	0.319	0.286	0.608	0.81	0.818	0.885	0.681	0.808
